From PubChem BioAssay (NCI)
Several values for one entry are separate records, joined by “and”; a condition that tells them apart may be missing. Equal entries are not always repeated.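 A five-concentration, 48-hour dose response in 96-well plates underlies each endpoint, interpolated linearly between surrounding concentrations. At the GI50, growth is halved. TGI: total growth inhibition.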

Key:
Test in all cases: DTP human tumour cell line panel, 48 h
[1] = tested on: OVCAR-5 ovarian
[2] = tested on: SNB-75 CNS
[3] = tested on: 786-0 renal
[4] = tested on: MDA-MB-435
[5] = tested on: MOLT-4 leukemia
[6] = tested on: RPMI-8226 leukemia
[7] = tested on: SK-OV-3 ovarian
[8] = tested on: SF-268 CNS
[9] = tested on: MDA-MB-231 breast
[10] = tested on: HOP-92 NSCLC

Structure (SMILES)	GI50 [1]	TGI [1]	GI50 [2]	TGI [2]	GI50 [3]	TGI [3]	GI50 [4]	TGI [4]	GI50 [5]	TGI [5]	GI50 [6]	TGI [6]	GI50 [7]	TGI [7]	GI50 [8]	TGI [8]	GI50 [9]	TGI [9]	TGI [10]	GI50 [10]
O=C(NC1CCN(Cc2ccccc2)CC1)c1cc(-c2cccnc2)nc2ccc(Cl)cc12	10.8 µM	> 100 µM	2.18 µM	12.7 µM	4.63 µM	17.7 µM	9.96 µM	> 100 µM	3.05 µM	9.82 µM	6.62 µM	> 100 µM	14.1 µM	42.7 µM	9.27 µM	70.1 µM	2.47 µM	13.1 µM		
COC(=O)c1cc(-c2ccc3ccccc3c2)[nH]c(=O)c1C#N		> 100 µM		> 100 µM		> 100 µM		> 100 µM				> 100 µM		> 100 µM		> 100 µM		> 100 µM	> 100 µM	
CC(=O)OCCOCn1c2ccccc2c2c3c(c4c5ccccc5n(COCCOC(C)=O)c4c21)C(=O)N(Cc1ccccc1)C3=O		> 100 µM		> 100 µM		> 100 µM				> 100 µM		> 100 µM		> 100 µM		> 100 µM			> 100 µM	
N#CCCN(CCC#N)c1ccc(/C=C(/NC(=O)c2cc([N+](=O)[O-])ccc2Cl)C(=O)N=[N+]=[N-])cc1		> 100 µM		> 100 µM		> 100 µM				> 100 µM		> 100 µM		> 100 µM		> 100 µM				
C/C(NNC(=O)c1ccccc1O)=C1\C=Nc2ccccc2S1		> 100 µM		43.8 µM		29.3 µM				> 100 µM		> 100 µM		> 100 µM		> 100 µM				
O=C1Cc2c(-c3ccccc3)cc(-c3ccccc3)nc2-c2ccccc2N1		21.2 µM		7.71 µM	4.14 µM	72.5 µM		> 100 µM				> 100 µM		18.9 µM		19.3 µM		17.2 µM	> 100 µM	
COc1cccc(/C=N/[N-]C(=O)c2ccncc2)c1[O-].[Mn+2].[OH3+]	37 µM	88.9 µM	26.8 µM	> 100 µM	5.43 µM	> 100 µM			3.24 µM	> 100 µM	6 µM	> 100 µM	5.94 µM	50.2 µM	4.97 µM	79.5 µM			> 100 µM	24.7 µM
CCCCCCCCCCC(=O)CCCCCCC(=O)O		51.3 µM		> 100 µM		39.6 µM				36.8 µM		32.3 µM		> 100 µM		> 100 µM			35.8 µM	
COc1ccc(C(c2ccccc2C(=O)O)c2ccc(OC)c3ccccc23)c2ccccc12		31.4 µM				30.5 µM				66 µM		20.8 µM		45.1 µM					50.8 µM	
O=CC(OC(=O)c1ccccc1)C(OC(=O)c1ccccc1)C(COC(c1ccccc1)(c1ccccc1)c1ccccc1)OC(=O)c1ccccc1 (configuration not stated)	21.6 µM	43.9 µM	10.2 µM	22.9 µM	20 µM	41 µM	12.8 µM	46.7 µM	2.64 µM	11.7 µM			21.3 µM	48.2 µM	12.7 µM	32.3 µM	21.6 µM	> 100 µM		
CCCCCCCCSC(=O)NCCCC		> 100 µM		84.7 µM		> 100 µM				87 µM		57.9 µM		> 100 µM		> 100 µM			53.9 µM	
CCCCC(C(=O)C(=O)Nc1ccc(C)cc1C)C(=O)C(C)C (configuration not stated)		> 100 µM		> 100 µM		> 100 µM				> 100 µM		> 100 µM				> 100 µM			> 100 µM	
O/N=C1/CCCC/C1=C/C=C/c1ccccc1		76 µM		75.3 µM		55 µM				67.1 µM		71.7 µM		> 100 µM		47.1 µM			36.7 µM	
C#CCN(N=O)C(=O)NC(CCCCNC(=O)OCc1ccccc1)C(=O)OCc1ccccc1 (configuration not stated)		84 µM		97.4 µM		32.5 µM				41.5 µM		45.9 µM		> 100 µM		> 100 µM			32.6 µM	
CC(=O)Nc1ccccc1-c1nc2ccccc2nc1-c1ccccc1				> 100 µM		> 100 µM				> 100 µM		> 100 µM		> 100 µM					> 100 µM	
O=C(NCCCCCCCCCCCCNC(=O)c1cnc2ccccc2n1)c1cnc2ccccc2n1				49.3 µM		> 100 µM				> 100 µM		> 100 µM		55.5 µM		> 100 µM				
O=C1c2c(O)cccc2C(C(=O)CCCCCC(=O)C2c3cccc(O)c3C(=O)c3c(O)cccc32)c2cccc(O)c21	6.96 µM	7.43 µM and 14.4 µM	1.69 µM	6.15 µM and 7.22 µM		21.6 µM			10.8 µM	25 µM and 27.6 µM	1.55 µM	2.1 µM and 4.41 µM	6.3 µM	4.15 µM and 13.8 µM	5.02 µM	4.52 µM and 11.9 µM			16.8 µM	
CCc1cccc(C(C)C)c1NC(=O)CC1Sc2ccccc2NC1=O (configuration not stated)		> 100 µM		> 100 µM		> 100 µM				92.1 µM		> 100 µM		> 100 µM		> 100 µM			95.3 µM	
NC(Cc1ccccc1)C(=O)OCN1C(=O)C2C3C=CC(C2C1=O)C1C2C(=O)N(COC(=O)C(N)Cc4ccccc4)C(=O)C2C31 (configuration not stated)		> 100 µM		64.6 µM and 62.3 µM		38.2 µM and 38 µM			24.3 µM and 12 µM	52 µM and 42.9 µM		56.4 µM and 44.7 µM		> 100 µM and 78.9 µM		48.3 µM and 41.6 µM			95.4 µM and > 100 µM	
CC(C)C[C@H](CC(=O)O)C(=O)N[C@@H](Cc1c[nH]c2ccccc12)C(=O)N[C@@H](C)c1ccccc1	> 25 µM	> 25 µM	> 25 µM	> 25 µM	> 25 µM	> 25 µM	> 25 µM	> 25 µM	> 25 µM	> 25 µM			> 25 µM	> 25 µM	> 25 µM	> 25 µM	> 25 µM	> 25 µM		
CC12Nc3ccccc3C1=C(c1ccccc1)CC1C(=O)OC(=O)C12 (configuration not stated)		> 100 µM		73.7 µM		> 100 µM				> 100 µM		> 100 µM				> 100 µM			> 100 µM	
